Laboratory results as given in patent US11534457B2, “Use of dextran sulfate” (priority 2017, dated 2022).

System: severe traumatic brain injury (sTBI)
Assay: sTBI in rats, brain gene expression arrays and pathway analysis (Example 9)
Assay type: in vivo, Male Wistar rats
Set-up: key to z score, canonical pathway Dendritic Cell Maturation / z score, canonical pathway Adrenomedullin Signaling pathway / z score, canonical pathway Endothelin-1 Signaling / effect on canonical pathway Adrenomedullin Signaling pathway / effect on canonical pathway Endothelin-1 Signaling / effect on canonical pathway Dendritic Cell Maturation / Ingenuity canonical pathway Adrenomedullin signaling pathway, z score / Ingenuity canonical pathway FLT3 Signaling in Hematopoietic Progenitor Cells, z score / Ingenuity canonical pathway Opioid Signaling Pathway, z score / Ingenuity canonical pathway VDR/RXR Activation, z score / Ingenuity canonical pathway Neuropathic Pain Signaling In Dorsal Horn Neurons, z score / Ingenuity canonical pathway STAT3 Pathway, z score / Ingenuity canonical pathway IL-1 Signaling, z score / Ingenuity canonical pathway IL-6 Signaling, z score / Ingenuity canonical pathway NF-κB Signaling, z score / Ingenuity canonical pathway Role of NFAT in Cardiac Hypertrophy, z score / Ingenuity canonical pathway PPARα/RXRα Activation, z score: *: ambiguous effect
Procedure: The experimental protocol used in this study was approved by the Ethical Committee of the Catholic University of Rome, according to international standards and guidelines for animal care. Male Wistar rats of 300-350 g body weight were fed with standard laboratory diet and water ad libitum in a controlled environment. As the anesthetic mixture, the animals received 35 mg/kg b.w. ketamine and 0.25 mg/kg body weight midazolam by i.p. injection. Severe traumatic brain injury (sTBI) was induced by dropping a 450 g weight from 2 m height on to the rat head that had been protected by a metal disk previously fixed on the skull, according to the “weight drop” impact acceleration model (Marmarou et al., A new model of diffuse brain injury in rats. Part I: Pathophysiology and biomechanics. J Neurosurg. 1994; 80: 291-300). […] At the end of each period of treatment, rats were anesthetized again and then immediately sacrificed.
LMW-DS (Tikomed AB) was provided at a stock concentration of 20 mg/ml and was kept in a temperature-monitored refrigerator at 4° C. LMW-DS aliquots were diluted to the appropriate dosing concentration in sterile saline prior to delivery of a single subcutaneous injection.
Three doses of LMW-DS were administered subcutaneously 30 minutes post-TBI. The animals were sacrificed at 2 days post-TBI. The animals were divided into the following subgroups:
Three doses of LMW-DS were administered subcutaneously 30 minutes post-TBI. The animals were sacrificed at 7 days post-TBI. The animals were divided into the following subgroups:
An in vivo craniectomy was performed on all animals during anesthesia. After carefully removing the rat's skull, the brain was exposed and removed with a surgical spatula and quickly dropped in RNALater and preserved at 4° C. for further processing.
RNA extraction and array processing was carried out by SourceBioscience. The arrays used were the Agilent Rat expression arrays.
Statistical analysis was carried out using the Metaboanalyst software package. Gene expression changes of 10% with a p<0.05 were regarded as significant.
Pathway analysis of the differentially regulated genes was carried out using the Ingenuity pathway analysis package. The analysis was performed with special reference to pathways and molecular processes and diseases associated with neurodegenerative disease, including dementia, Alzheimer's disease, ALS, TBI and stroke, and with scarring and fibrosis, including glaucoma and normal pressure hydrocephalus (NPH) after subarachnoid haemorrhage.

[1] = TBI + 5 mg/kg LMW-DS, after 7 days, TBI: Inhibited
[2] = TBI + 15 mg/kg LMW-DS, 2 days after TBI
[3] = TBI + 15 mg/kg LMW-DS, 7 days after TBI
[4] = TBI + 15 mg/kg LMW-DS, 7 days after TBI, relative to control
[5] = TBI + 15 mg/kg LMW-DS, after 7 days, TBI: Activated
[6] = TBI + 15 mg/kg LMW-DS, after 7 days, TBI: Inhibited
[7] = TBI + 15 mg/kg repeat dose LMW-DS, after 7 days, TBI: Activated
[8] = TBI + 15 mg/kg repeat dose LMW-DS, after 7 days, TBI: Inhibited

## low molecular weight dextran sulfate [LMW-DS]
[1]
  Diseases or functions annotation: Organization of cytoskeleton: Activated
  Diseases or functions annotation: Pelvic tumor: Activated
  Diseases or functions annotation: Proliferation of connective tissue cells: Inhibited
  Diseases or functions annotation: Proliferation of epithelial cells: Inhibited
  Diseases or functions annotation: Quantity of cells: Activated
  Diseases or functions annotation: Quantity of connective tissue: Activated
  Diseases or functions annotation: Secretion of molecule: Activated
  Diseases or functions annotation: Size of body: Activated
  Diseases or functions annotation: Solid tumor: Activated
  Diseases or functions annotation: Synthesis of lipid: Activated
  Diseases or functions annotation: Transcription: Activated
  Diseases or functions annotation: Transcription of RNA: Activated
  Diseases or functions annotation: Transport of molecule: Activated
  Diseases or functions annotation: Tumorigenesis of tissue: Inhibited
  Diseases or functions annotation: Vasculogenesis: Activated
[2]
  Diseases or functions annotation: Apoptosis: Inhibited
  Diseases or functions annotation: Apoptosis of tumor cell lines: Activated
  Diseases or functions annotation: Behavior: Inhibited
  Diseases or functions annotation: Cell death: Inhibited
  Diseases or functions annotation: Necrosis: Inhibited
  Diseases or functions annotation: Quantity of blood cells: Inhibited
  Diseases or functions annotation: Quantity of cells: Inhibited
  Diseases or functions annotation: Quantity of lymphocytes: Inhibited
[3]
  Ingenuity canonical pathway: Endothelin-1 Signaling: Activated
  Ingenuity canonical pathway: Phospholipase C Signaling: Activated
  Ingenuity canonical pathway: cAMP-mediated signaling: Activated
  z score: Abdominal neoplasm: −0.272
  z score: Apoptosis: −0.256
  z score: Apoptosis of tumor cell lines: 0.783
  z score: Cancer: 1.705
  z score: Carcinoma: 1.067
  z score: Cell death: −1.269
  z score: Cell death of tumor cell lines: 0.178
  z score: Cell movement of myeloid cells: 1.197
  z score: Development of connective tissue cells: 0.766
  z score: Development of malignant tumor: −0.774
  z score: Differentiation of bone cells: 0.903
  z score: Epithelial neoplasm: 0.775
  z score: Extracranial solid tumor: 1.474
  z score: Frequency of tumor: −1.519
  z score: Genitourinary tumor: 1.746
  z score: Incidence of tumor: −0.865
  z score: Leukocyte migration: 2.365
  z score: Necrosis: 0.213
  z score: Non-melanoma solid tumor: 1.121
  z score: Quantity of Ca^2+: 0.224
  z score: Quantity of cells: 0.991
  z score: Solid tumor: 0.992
  z score: Transcription: 0.747
  z score: Transcription of RNA: 0.517
  z score: Tumorigenesis of epithelial neoplasm: 0.152
  z score: Tumorigenesis of tissue: 0.918
[4]
  Ingenuity canonical pathway Adrenomedullin signaling pathway, z score: *
  Ingenuity canonical pathway Endothelin-1 Signaling, z score: 1
  Ingenuity canonical pathway Phospholipase C Signaling, z score: 2
  Ingenuity canonical pathway cAMP-mediated signaling, z score: 1
[5]
  Diseases or functions annotation: Apoptosis: Inhibited
  Diseases or functions annotation: Apoptosis of tumor cell lines: Activated
  Diseases or functions annotation: Cell death: Inhibited
  Diseases or functions annotation: Cell death of tumor cell lines: Activated
  Diseases or functions annotation: Development of malignant tumor: Inhibited
  Diseases or functions annotation: Extracranial solid tumor: Activated
  Diseases or functions annotation: Frequency of tumor: Inhibited
  Diseases or functions annotation: Incidence of tumor: Inhibited
  Diseases or functions annotation: Necrosis: Activated
[6]
  Diseases or functions annotation: Abdominal neoplasm: Inhibited
  Diseases or functions annotation: Cancer: Activated
  Diseases or functions annotation: Carcinoma: Activated
  Diseases or functions annotation: Cell movement of myeloid cells: Activated
  Diseases or functions annotation: Development of carcinoma: Activated
  Diseases or functions annotation: Development of connective tissue cells: Activated
  Diseases or functions annotation: Differentiation of bone cells: Activated
  Diseases or functions annotation: Epithelial neoplasm: Activated
  Diseases or functions annotation: Genitourinary tumor: Activated
  Diseases or functions annotation: Leukocyte migration: Activated
  Diseases or functions annotation: Non-melanoma solid tumor: Activated
  Diseases or functions annotation: Quantity of cells: Activated
  Diseases or functions annotation: Solid tumor: Activated
  Diseases or functions annotation: Transcription: Activated
  Diseases or functions annotation: Transcription of RNA: Activated
  Diseases or functions annotation: Tumorigenesis of epithelial neoplasm: Activated
  Diseases or functions annotation: Tumorigenesis of tissue: Activated
[7]
  Diseases or functions annotation: Digestive organ tumor: Inhibited
  Diseases or functions annotation: Extracranial solid tumor: Activated
  Diseases or functions annotation: Gastrointestinal tumor: Inhibited
  Diseases or functions annotation: Hematologic cancer: Inhibited
  Diseases or functions annotation: Hematopoietic neoplasm: Inhibited
  Diseases or functions annotation: Obesity: Activated
  Diseases or functions annotation: Seizure disorder: Activated
  Diseases or functions annotation: Skin lesion: Activated
[8]
  Diseases or functions annotation: Abdominal cancer: Inhibited
  Diseases or functions annotation: Abdominal neoplasm: Inhibited
  Diseases or functions annotation: Adenocarcinoma: Inhibited
  Diseases or functions annotation: Branching of cells: Activated
  Diseases or functions annotation: Carcinoma: Inhibited
  Diseases or functions annotation: Cell movement: Activated
  Diseases or functions annotation: Cell-cell contact: Activated
  Diseases or functions annotation: Concentration of hormone: Activated
  Diseases or functions annotation: Concentration of lipid: Inhibited
  Diseases or functions annotation: Dendritic growth/branching: Inhibited
  Diseases or functions annotation: Development of connective tissue cells: Inhibited
  Diseases or functions annotation: Development of gap junctions: Activated
  Diseases or functions annotation: Development of neurons: Activated
  Diseases or functions annotation: Developmental process of synapse: Activated
